Test results from PubChem BioAssay (NCI).
Values joined by “and” are separate entries in the source; they are usually repeats but may differ in a detail not shown here. Equal values may be shown once.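 How tested: cells in 96-well plates exposed to compound for 48 hours at five concentrations. GI50 marks 50% less growth. TGI: total growth inhibition.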

Each compound was assayed on SK-MEL-28 melanoma (assay: NCI anticancer screen, dose series, 48 h).

Structure (SMILES)	TGI	GI50 [µM]
CC(c1ccccc1)N1CCN(C(C)c2ccccc2)CC1 (stereo unspecified)	95.4 µM	–
COc1ccc(C(=O)/C=C/c2ccc(OCCCOc3ccc(/C=C/C(=O)c4ccc(OC)cc4)cc3)cc2)cc1	> 100 µM	–
O=C(O)COc1ccccc1C(=O)Nc1ccccc1	> 100 µM	–
COc1ccc(N2C(=O)CC(=O)N(NC(=O)C(C)Oc3ccccc3C)C2=S)cc1 (stereo unspecified)	> 100 µM	–
COc1ccc(C2c3cn[nH]c3CC3CCCCC32)cc1 (stereo unspecified)	33.4 µM	–
C/C(=N\N=C1/C(=O)OC(c2ccccc2)=C1C(=O)c1ccccc1)c1ccc([N+](=O)[O-])cc1	> 100 µM	–
O=S(=O)(O)C(CO)c1ccccc1 (stereo unspecified) (tested in a mixture with another compound)	> 100 µM	–
O=C1CC2(CCC(O)(c3ccc4ccccc4c3)C(C(=O)c3ccc4ccccc4c3)C2)C(=O)c2ccccc2N1 (stereo unspecified)	> 100 µM	–
Cc1nc(C)c(N2CCN([N+](=O)[O-])CC2)c(=O)[nH]1	> 100 µM	–
Cc1cc(/N=C/c2ccc(N(C)C)cc2)n(-c2ccccc2)n1	> 100 µM	–
O=C(/C=C/c1ccccc1)Oc1ccc(C(=O)/C=C/c2ccccc2)cc1	21.3 µM	–
CCOC(=O)N1CCC(N[C@@H]2c3cc4c(cc3C(c3cc(OC)c(O)c(OC)c3)C3C(=O)OC[C@@H]32)OCO4)CC1 (stereo partly specified)	27.1 µM and 16.4 µM	–
NS(=O)(=O)c1ccc(NC(=S)/N=C/C2=C(O)c3ccccc3C2=O)cc1	> 100 µM	–
O=C1NC2c3c(I)sc(I)c3C(O)C2O1 (stereo unspecified)	> 100 µM	–
CNc1cc2c(c3ccccc13)C(CCl)CN2C(=O)c1cc2cc(OC)c(OC)c(OC)c2[nH]1 (stereo unspecified)	0.0351 µM	–
NCCCN1c2ccccc2Sc2ccc(Cl)cc21	> 10 µM	–

Structure (SMILES)	TGI	GI50 [µM]
CCOC(=O)c1cccc(N=Nc2nc[nH]c2/C=C/C(=O)OC)c1	> 100 µM	–
O=C(O)CN1CCN2CCCCCN(CC1)CCN(CC(=O)O)CC2	> 100 µM	–
Cc1cccc(C)c1NC(=O)C(Cc1c[nH]c2ccccc12)NC(=O)OCc1ccccc1 (stereo unspecified)	57.1 µM	–
Clc1ccc(-c2nnc3sc4nc5ccccc5c-4nn23)c(Cl)c1	> 100 µM	–
N#CC(C#N)=C1SC(=Nc2ccccc2)C(=Nc2ccccc2)N1c1ccccc1	> 58 µM	–
Cc1ccc(C2=CC(=O)OC(C[P+](c3ccccc3)(c3ccccc3)c3ccccc3)(c3ccccc3)O2)cc1 (stereo unspecified)	33.5 µM	–
Cc1ccc(S(=O)(=O)n2c3c(c4ccccc42)CCN2C[C@H]([C@H](C)Br)CC[C@@H]32)cc1	> 100 µM	–
O=c1oc2cc(O)ccc2c(O)c1C(c1ccccc1)c1c(O)c2ccc(O)cc2oc1=O	> 100 µM	–
C[n+]1c(/C=C/c2c(O)ccc3ccccc23)ccc2ccccc21	15.1 µM	7.91
O=C1c2cc(-c3ccccc3)cnc2S(=O)(=O)N1c1ccc(Br)cc1	> 100 µM	–
O=C(NCP(=O)(Oc1ccccc1)Oc1ccccc1)OCc1ccccc1	> 100 µM	–
COC1=CC(=O)c2c(c(-c3nc(C)cs3)cn2C)C1=O	16.1 µM	–
C=CCn1c(=O)c(C(=O)Nc2nc(C34CC5CC(CC(C5)C3)C4)cs2)c(O)c2ccccc21	> 100 µM	–
C=CCc1cc(-c2nc(=S)[nH][nH]2)ccc1N=NNc1ccc(C(=O)O)cc1	> 100 µM	–
CC(C)SC(=S)Sc1c(Cl)c(Cl)nc(Cl)c1Cl	> 100 µM	–
O=C(O)CN1CCNCCN(CC(=O)O)CCN(CC(=O)O)CCNCC1	> 100 µM	–

The compounds below were run on NCI-H460 lung (assay: NCI anticancer screen, dose series, 48 h).

Structure (SMILES)	TGI [µM]
CCN1CN(c2ccccc2)C2(CCN(CC3COc4ccccc4O3)CC2)C1=O (stereo unspecified)	45.4
C=C1C(=O)CC2C1CC(=O)/C(C)=C/CCC(C)(O)C2O (stereo unspecified)	45.5
C[C@H](CCC(=O)O)[C@H]1CC[C@H]2[C@@H]3C(=O)C[C@@H]4C[C@H](O)CC[C@]4(C)[C@H]3C[C@H](O)[C@]12C	> 100
CC(=O)NC1C(OCc2ccccc2)OC(CO)C(O)C1OCC(=O)N[C@@H](C)C(=O)N[C@H](CCC(=O)NCCCNc1c2ccccc2nc2cccc([N+](=O)[O-])c12)C(N)=O (stereo partly specified)	0.0609
O=C(O)c1ccccc1CC(Cc1ccc2c(c1)CCC2)C(=O)O (stereo unspecified)	> 100
Cn1c(SCc2ccc(F)cc2)nnc1C12CC3CC(CC(C3)C1)C2	> 100
COC(=O)/C=C\C(C#N)(C#N)N=Cc1ccc(C)cc1	41.1
CC(c1ccccc1)N1CCN(C(C)c2ccccc2)CC1 (stereo unspecified)	> 100
COc1ccc(C(=O)/C=C/c2ccc(OCCCOc3ccc(/C=C/C(=O)c4ccc(OC)cc4)cc3)cc2)cc1	> 100
O=C(O)COc1ccccc1C(=O)Nc1ccccc1	> 100
COc1ccc(N2C(=O)CC(=O)N(NC(=O)C(C)Oc3ccccc3C)C2=S)cc1 (stereo unspecified)	> 100
COc1ccc(C2c3cn[nH]c3CC3CCCCC32)cc1 (stereo unspecified)	30.8
C/C(=N\N=C1/C(=O)OC(c2ccccc2)=C1C(=O)c1ccccc1)c1ccc([N+](=O)[O-])cc1	> 100
O=S(=O)(O)C(CO)c1ccccc1 (stereo unspecified) (tested in a mixture with another compound)	> 100
O=C1CC2(CCC(O)(c3ccc4ccccc4c3)C(C(=O)c3ccc4ccccc4c3)C2)C(=O)c2ccccc2N1 (stereo unspecified)	> 100
Cc1nc(C)c(N2CCN([N+](=O)[O-])CC2)c(=O)[nH]1	> 100
Cc1nn(-c2ccccc2)c2c1C(c1cc3ccccc3nc1Cl)NC(=O)N2 (stereo unspecified)	> 100
Cc1cc(/N=C/c2ccc(N(C)C)cc2)n(-c2ccccc2)n1	> 100
